In the NIST ThermoML archive (doi:10.1016/j.jct.2016.07.005):

Key:
[1] = 100 kPa, Liquid; for viscosity: Concentric cylinders viscometry; for mass density: Vibrating tube method
[2] = refractive index (Na D-line) (dimensionless); details: 100 kPa, Liquid, Standard Abbe refractometry
[3] = xn = mol fraction of the nth substance listed; details: 100 kPa, Liquid, x2 = 0; for viscosity: Concentric cylinders viscometry; for mass density: Vibrating tube method
[4] = refractive index (Na D-line) (dimensionless); xn = mol fraction of the nth substance listed; details: 100 kPa, Liquid, Standard Abbe refractometry, x2 = 0

CC(O)CO (centres undefined) [1,2-propanediol]
Details	mass density, [1] [kg/m3]	refractive index, [2]	viscosity, [1] [mPa·s]
293.15 K	1036.3	1.43279	59.56
298.15 K	1032.62	1.43111	44.14
303.15 K	1028.91	1.42941	33.25
308.15 K	1025.16	1.42773	25.5
313.15 K	1021.39	1.42601	19.78
318.15 K	1017.57	1.42429	15.76
323.15 K	1013.72	1.42257	12.75

CC(O)CO (centres undefined) [1,2-propanediol] + CN1CCC[C@H]1c1cccnc1
Details	mass density, [3] [kg/m3]	refractive index, [4]	viscosity, [3] [mPa·s]
293.15 K	1036.3	1.43279	59.56
298.15 K	1032.62	1.43111	44.14
303.15 K	1028.91	1.42941	33.25
308.15 K	1025.16	1.42773	25.5
313.15 K	1021.39	1.42601	19.78
318.15 K	1017.57	1.42429	15.76
323.15 K	1013.72	1.42257	12.75

CN1CCC[C@H]1c1cccnc1 [(-)-3-(N-methylpyrrolidino)pyridine]
Details	mass density, [1] [kg/m3]	refractive index, [2]	viscosity, [1] [mPa·s]
293.15 K	1010.23	1.52665	4.694
298.15 K	1006.16	1.52439	4.048
303.15 K	1002.1	1.52214	3.518
308.15 K	998.055	1.51988	3.088
313.15 K	994.014	1.5179	2.758
318.15 K	989.984	1.51592	2.411
323.15 K	985.962	1.51373	2.195

CCCCO [butan-1-ol]
Details	mass density, [1] [kg/m3]	refractive index, [2]	viscosity, [1] [mPa·s]
293.15 K	809.819	1.39922	2.914
298.15 K	805.995	1.39719	2.564
303.15 K	802.148	1.39517	2.258
308.15 K	798.276	1.39311	1.994
313.15 K	794.372	1.39102	1.777
318.15 K	790.429	1.38896	1.589
323.15 K	786.444	1.38688	1.372

CCCCO [butan-1-ol] + CN1CCC[C@H]1c1cccnc1
Details	mass density, [3] [kg/m3]	refractive index, [4]	viscosity, [3] [mPa·s]
293.15 K	809.819	1.39922	2.914
298.15 K	805.995	1.39719	2.564
303.15 K	802.148	1.39517	2.258
308.15 K	798.276	1.39311	1.994
313.15 K	794.372	1.39102	1.777
318.15 K	790.429	1.38896	1.589
323.15 K	786.444	1.38688	1.372

CCC(C)O (centres undefined) [butan-2-ol]
Details	mass density, [1] [kg/m3]	refractive index, [2]	viscosity, [1] [mPa·s]
293.15 K	807.19	1.39715	3.76
298.15 K	803.049	1.39497	3.093
303.15 K	798.829	1.39274	2.566
308.15 K	794.525	1.39045	2.149
313.15 K	790.127	1.38803	1.816
318.15 K	785.636	1.38571	1.548
323.15 K	781.043	1.38322	1.332

CCC(C)O (centres undefined) [butan-2-ol] + CN1CCC[C@H]1c1cccnc1
Details	mass density, [3] [kg/m3]	refractive index, [4]	viscosity, [3] [mPa·s]
293.15 K	807.19	1.39715	3.76
298.15 K	803.049	1.39497	3.093
303.15 K	798.829	1.39274	2.566
308.15 K	794.525	1.39045	2.149
313.15 K	790.127	1.38803	1.816
318.15 K	785.636	1.38571	1.548
323.15 K	781.043	1.38322	1.332

OCCCO [propan-1,3-diol]
Details	mass density, [1] [kg/m3]	refractive index, [2]	viscosity, [1] [mPa·s]
293.15 K	1053.03	1.43918	52.31
298.15 K	1049.9	1.43783	41.55
303.15 K	1046.77	1.43648	33.22
308.15 K	1043.63	1.43515	26.87
313.15 K	1040.49	1.43382	21.85
318.15 K	1037.33	1.4324	18.12
323.15 K	1034.16	1.43101	15.21

OCCCO [propan-1,3-diol] + CN1CCC[C@H]1c1cccnc1
Details	mass density, [3] [kg/m3]	refractive index, [4]	viscosity, [3] [mPa·s]
293.15 K	1053.03	1.43918	52.31
298.15 K	1049.9	1.43783	41.55
303.15 K	1046.77	1.43648	33.22
308.15 K	1043.63	1.43515	26.87
313.15 K	1040.49	1.43382	21.85
318.15 K	1037.33	1.4324	18.12
323.15 K	1034.16	1.43101	15.21
